Measurements as given in patent US12336991B2, “Factor XIIA inhibitors” (UNIVERSITY OF LEEDS, priority 2018, dated 2025).

How the values were obtained:
Assay type in all cases: biochemical
FXIIa = molecular target: T1, FXIIa (Homo sapiens, UniProt P00748); assay: Determination of Factor XIIa inhibition, chromogenic substrate S-2302 assay; details: human FXIIa alpha
T1 sequence (P00748 373-615 limits assumed): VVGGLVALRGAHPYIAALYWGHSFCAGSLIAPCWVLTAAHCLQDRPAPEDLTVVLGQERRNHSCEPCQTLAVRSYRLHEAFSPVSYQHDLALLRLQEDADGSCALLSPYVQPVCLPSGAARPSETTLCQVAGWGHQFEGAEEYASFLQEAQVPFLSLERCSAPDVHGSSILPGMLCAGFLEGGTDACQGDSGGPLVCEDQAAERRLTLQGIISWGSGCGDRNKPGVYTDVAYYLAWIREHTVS
T1 sequence (P00748 20-372 partner limits assumed): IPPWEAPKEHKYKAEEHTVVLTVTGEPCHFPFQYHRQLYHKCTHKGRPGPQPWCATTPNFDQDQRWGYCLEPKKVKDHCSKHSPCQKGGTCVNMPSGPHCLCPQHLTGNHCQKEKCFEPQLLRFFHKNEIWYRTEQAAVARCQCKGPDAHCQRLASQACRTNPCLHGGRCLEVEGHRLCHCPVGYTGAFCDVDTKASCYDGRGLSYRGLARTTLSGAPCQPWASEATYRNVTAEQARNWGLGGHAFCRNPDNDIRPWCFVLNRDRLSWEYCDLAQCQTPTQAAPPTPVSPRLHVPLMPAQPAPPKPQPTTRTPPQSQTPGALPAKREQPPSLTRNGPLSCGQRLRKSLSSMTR
Method in brief: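 FXIIa (10 nM) preincubated with compound 10 min at 37° C. in 50 mM Tris, 137 mM NaCl pH 7.4, 5% DMSO, top concentration 500 μM, then S-2302 added ([…]). Absorbance at 405 nm read kinetically for 3 h; IC50 from initial rates, converted to Ki by Cheng-Prusoff.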

thrombin = molecular target: T2, thrombin (Homo sapiens, UniProt P00734); assay: Determination of selectivity: thrombin inhibition, chromogenic substrate GPR assay; details: fold selectivity for FXIIa over thrombin
T2 construct: FXa (5 nM) and thrombin (5 nM)
Method in brief: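 Thrombin (5 nM) preincubated with compound 10 min at 37 °C in 50 mM Tris, 137 mM NaCl, pH 7.4, 5% DMSO, then GPR substrate ([…]) added. Absorbance at 405 nm read kinetically for 3 h; IC50 from initial rates, converted to Ki via Ki=IC50/(1+[S]/Km).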

FXa = FXa (Homo sapiens, UniProt P00742); assay: Determination of selectivity: FXa inhibition, chromogenic substrate S2765 assay; details: fold selectivity for FXIIa over FXa
FXa, sequence (P00742 235-488 limits assumed): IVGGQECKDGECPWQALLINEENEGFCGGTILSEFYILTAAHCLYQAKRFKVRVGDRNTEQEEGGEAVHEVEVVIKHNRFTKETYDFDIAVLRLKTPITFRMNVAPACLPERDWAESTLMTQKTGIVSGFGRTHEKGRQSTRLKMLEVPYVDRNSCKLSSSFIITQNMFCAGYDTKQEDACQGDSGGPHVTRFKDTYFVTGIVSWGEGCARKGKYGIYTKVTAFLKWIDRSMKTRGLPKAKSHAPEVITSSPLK
FXa, sequence (P00742 41-179 partner limits assumed): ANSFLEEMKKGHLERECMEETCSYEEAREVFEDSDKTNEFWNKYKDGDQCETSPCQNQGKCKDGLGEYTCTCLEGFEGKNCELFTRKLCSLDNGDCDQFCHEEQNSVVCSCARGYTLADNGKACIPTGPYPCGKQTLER
Method in brief: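 Human FXa (5 nM) preincubated with compound (top 500 μM, 5% DMSO) 10 min at 37 °C in 50 mM Tris, 137 mM NaCl pH 7.4, then S2765 ([…]) added; A405 kinetics over 3 h at 37 °C. IC50 from initial rates, converted to Ki via Cheng-Prusoff.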

| Ki (FXIIa) [µM] | Thrombin (human)/FXIIa alpha (human) (thrombin) | FXa (human)/FXIIa alpha (human) (FXa) | SMILES |
| --- | --- | --- | --- |
| 0.2 to 2 | ++ (fold selectivity value of 10 to 100) | ∘∘∘ | NCc1ccc(CNC(=O)[C@@H]2C[C@@H](Cc3ccc(Cl)cc3)CN2C(=O)[C@H](N)CCc2ccccc2)cc1 [Example M05117] |
| 0.2 to 2 | ++ (fold selectivity value of 10 to 100) | ∘∘ | Cn1nnc2cc(CNC(=O)[C@@H]3C[C@@H](Cc4ccc(F)cc4F)CN3C(=O)[C@H]3C[C@@H](c4ccccc4)CN3)ccc21 [Example M05361] |
| > 2 | + (fold selectivity values less than 10) | ∘∘ | COc1ccc(C[C@@H]2C[C@@H](C(=O)NCc3ccc4c(c3)nnn4C)N(C(=O)[C@H]3CC(c4cnccc4OC)CN3)C2)cc1 (stereo partly drawn) [Example M05410] |
| > 2 | ++ (fold selectivity value of 10 to 100) | ∘∘ | COc1ccc2c(c1)CCNC2C(=O)N1C[C@H](Cc2ccncc2)C[C@H]1C(=O)NCc1ccc2c(c1)nnn2C (stereo partly drawn) [Example M05463] |
| > 2 | ++ (fold selectivity value of 10 to 100) | ∘∘ | Cn1nnc2cc(CNC(=O)[C@@H]3CC(Cc4ccccc4Br)CN3C(=O)[C@H]3C[C@@H](c4ccccc4)CN3)ccc21 (stereo partly drawn) [Example M05329] |
| > 2 | ++ (fold selectivity value of 10 to 100) | ∘∘ | Cn1nnc2cc(CNC(=O)[C@@H]3C[C@H](NCc4ccccc4)CN3C(=O)[C@H](N)CCc3ccccc3)ccc21 [Example M05158] |
| > 2 | ++ (fold selectivity value of 10 to 100) | ∘∘ | COc1ccc(C[C@@H]2C[C@@H](C(=O)NCc3ccc4c(c3)nnn4C)N(C(=O)[C@H]3CC(c4cncn4C)CN3)C2)cc1 (stereo partly drawn) [Example M05446] |
| 0.2 to 2 | + (fold selectivity values less than 10) | ∘∘∘ | COc1cc(CNC(=O)[C@@H]2C[C@@H](C)CN2C(=O)[C@H](N)CCc2ccccc2)ccc1CN [Example M05074] |
| 0.2 to 2 | ++ (fold selectivity value of 10 to 100) | ∘ | Nc1nccc2cc(CNC(=O)[C@@H]3C[C@@H](c4ccccc4)CN3C(=O)[C@H](N)CCC(=O)N3CCCC3)ccc12 [Example M05282] |
| > 2 | ++ (fold selectivity value of 10 to 100) | ∘∘ | CC(=O)N(Cc1ccccc1)[C@H]1C[C@@H](C(=O)NCc2ccc3c(c2)nnn3C)N(C(=O)[C@H](N)CCc2ccccc2)C1 [Example M05161] |
| > 2 | ++ (fold selectivity value of 10 to 100) | ∘∘ | Cn1nnc2cc(CNC(=O)[C@@H]3C[C@@H](NC(=O)c4ccccc4)CN3C(=O)[C@H](N)CCc3ccccc3)ccc21 [Example M05179] |
| > 2 | ++ (fold selectivity value of 10 to 100) | ∘∘ | Cn1nnc2cc(CNC(=O)[C@@H]3C[C@H](NC(=O)Cc4ccccc4)CN3C(=O)[C@H](N)CCc3ccccc3)ccc21 [Example M05216] |
| > 2 | ++ (fold selectivity value of 10 to 100) | ∘∘ | Cn1nnc2cc(CNC(=O)[C@@H]3C[C@H](CC4CCOCC4)CN3C(=O)[C@H](N)CCC(=O)N3CCCC3)ccc21 [Example M05293] |
| > 2 | ++ (fold selectivity value of 10 to 100) | ∘∘ | NCc1ccc(CNC(=O)[C@@H]2C[C@H](O)CN2C(=O)[C@H](N)CCc2ccccc2)cc1 [Example M00626] |
| > 2 | ++ (fold selectivity value of 10 to 100) | ∘∘ | Cn1nnc2cc(CNC(=O)[C@@H]3C[C@@H](Cc4ccc(F)c(F)c4)CN3C(=O)C3C[C@@H](c4ccccc4)CN3)ccc21 (stereo partly drawn) [Example M05325] |

| SMILES | Ki (FXIIa) [µM] | Thrombin (human)/FXIIa alpha (human) (thrombin) | FXa (human)/FXIIa alpha (human) (FXa) |
| --- | --- | --- | --- |
| COc1ccc(C[C@@H]2C[C@@H](C(=O)NCc3ccc4c(c3)nnn4C)N(C(=O)[C@H]3C[C@@H](c4cccnc4)CN3)C2)cc1 [Example M05354] | 0.2 to 2 | +++ (fold selectivity values greater than 100) | ∘∘∘ |
| COc1ccc(C[C@@H]2C[C@@H](C(=O)NCc3ccc4c(c3)nnn4C)N(C(=O)[C@H]3CC(c4ccccc4C)CN3)C2)cc1 (stereo partly drawn) [Example M05365] | 0.2 to 2 | +++ (fold selectivity values greater than 100) | ∘∘∘ |
| COc1ccc(C[C@@H]2C[C@@H](C(=O)NCc3ccc4c(c3)nnn4C)N(C(=O)[C@H]3CC(c4ccccc4F)CN3)C2)cc1 (stereo partly drawn) [Example M05377] | 0.2 to 2 | +++ (fold selectivity values greater than 100) | ∘∘∘ |
| COc1ccc(C[C@@H]2C[C@@H](C(=O)NCc3ccc4c(c3)nnn4C)N(C(=O)C3NCCc4cc(OC)ccc43)C2)cc1 (stereo partly drawn) [Example M05442] | 0.2 to 2 | +++ (fold selectivity values greater than 100) | ∘∘∘ |
| CN(C)[C@H](CCC(=O)N1CCCC1)C(=O)N1C[C@H](Cc2cccnc2)C[C@H]1C(=O)NCc1ccc2c(c1)c(Cl)nn2C [Example M05219] | < 0.2 | +++ (fold selectivity values greater than 100) | ∘∘∘ |
| COc1ccc(C[C@@H]2C[C@@H](C(=O)NCc3ccc4c(c3)nnn4C)N(C(=O)[C@H](N)CCC(=O)N3CCCC3(C)C)C2)cc1 [Example M05450] | < 0.2 | +++ (fold selectivity values greater than 100) | ∘∘∘ |
| COc1ccc(C[C@@H]2C[C@@H](C(=O)NCc3ccc4c(C)nn(C)c4c3)N(C(=O)[C@H](N)CCC(=O)N3CCCC3)C2)cc1 [Example M05448] | 0.2 to 2 | +++ (fold selectivity values greater than 100) | ∘∘∘ |
| Cn1nnc2cc(CNC(=O)[C@@H]3C[C@@H](Cc4ccc(Br)cc4)CN3C(=O)[C@H](N)CCC(=O)N3CCCC3)ccc21 [Example M05326] | < 0.2 | +++ (fold selectivity values greater than 100) | ∘∘∘ |
| COc1ccc(C[C@@H]2C[C@@H](C(=O)NCc3ccc4c(c3)nnn4C)N(C(=O)[C@H](N)CCC(=O)N3CCC[C@@H]3C(C)C)C2)cc1 [Example M05412] | < 0.2 | +++ (fold selectivity values greater than 100) | ∘∘∘ |
| COc1ccc(C[C@@H]2C[C@@H](C(=O)NCc3ccc4c(c3)nnn4C)N(C(=O)[C@H](N)CCC(=O)N3CCCC3C(F)(F)F)C2)cc1 (stereo partly drawn) [Example M05392] | < 0.2 | +++ (fold selectivity values greater than 100) | ∘∘∘ |
| Cn1nnc2cc(CNC(=O)[C@@H]3C[C@@H](Cc4cccc(-c5ccncc5)c4)CN3C(=O)[C@H](N)CCC(=O)N3CCCC3)ccc21 [Example M05323] | < 0.2 | +++ (fold selectivity values greater than 100) | ∘∘∘ |
